This note sets out measurements from patent US20140255517A1, “MANAGING POST-TRAUMATIC STRESS DISORDER” (EMORY UNIVERSITY, priority 2013, published 2014).

“Also recorded” adds a separate entry of the source.

Holding throughout (assay type): in vivo, mice
Data set [1] relates to corticosterone. The data set can be described thus: Plasma corticosterone after 30 minutes of restraint stress. The following applies: losartan for 2 weeks vs vehicle; 30 minutes restraint stress. As for the experimental part:
(§1) The hypothalamic pituitary axis (HPA) stress axis could influence the level of learned fear. In order to examine the chronic effects of losartan on the HPA, stress response was examined as well as plasma renin, a measure of endogenous angiotensin II activity. Animals were exposed to 30 minutes of restraint stress and plasma levels of corticosterone and renin measured.

Data set [2] concerns animal model of PTSD-like symptoms. The data set can be described thus: Cued Pavlovian fear conditioning, extinction training and extinction retention after acute losartan. As for the experimental part:
24 hr following fear acquisition, losartan (1 mg/kg or 10 mg/kg i.p) was given prior to extinction training (B, E; n=20-25/group). 24 hr following extinction training, and in the absence of drug, mice were tested for extinction retention of learned fear, expressed as total average freezing and in blocks of 5 CS tones (C,D,F,G). To further understand the mechanism by which angiotensin II blockers reduce PTSD symptoms, the effects of the selective AT1R antagonist losartan were examined in an animal model of PTSD-like symptoms. Animals were cue-fear trained using Pavlovian fear conditioning consisting of five pairings of a conditioned stimulus (CS) tone (12 kHz) co-terminating with a shock or unconditioned stimulus (US). […] Twenty-four hours later, the effects of losartan were examined on fear expression (also considered the extinction training session) to the presentation of 15 trials of CS cues in a different context. Groups were given either losartan (1 mg/kg or 10 mg/kg i.p.) or saline 40 minutes prior to fear expression/extinction training. […] Therefore in a separate group of animals, a higher dose of losartan (10 mg/kg i.p.) was examined. […] Twenty-four hours later in the absence of drug, long-term fear memory was assessed (extinction retention).

Data set [3] deals with c-Fos. The data set can be described thus: c-Fos activation in the paraventricular nucleus after restraint stress. To be noted: chronic losartan vs vehicle, t(10)=2.3, P<0.05. The source says:
(§2) As an index of central HPA neuronal activation, c-Fos activation was then examined in the paraventricular nucleus (PVN).

The subject of data set [4] is plasma renin. The experiment in a line: Plasma renin activity after 30 minutes of restraint stress. To be noted: losartan for 2 weeks vs vehicle; 30 minutes restraint stress. As for the experimental part:
as §1, §2

Data set [5] can be described thus: Anxiety-like behavior in elevated plus maze and open field tests. The procedure: Distance traveled during open-field testing (B) and percent time in open arms of elevated plus maze test of vehicle (C) (n=6-8/group). To determine whether losartan affects baseline levels of generalized anxiety, animals were tested in the elevated plus and open field mazes.
The subject of data set [6] is animal model of PTSD-like symptoms. The experiment in a line: Cued Pavlovian fear conditioning and extinction after chronic losartan infusion by osmotic mini-pump. The procedure:
Extinction training/fear expression was tested and total average freezing within the session (B) and represented in blocks of 5 CS tones (C) 24 hr following fear acquisition.
The chronic effects of AT1 R antagonism on the extinction of fear to were examined. Two-week osmotic mini-pumps were implanted and losartan (10 mg/kg/day) was subcutaneously infused. […] On day 10, animals underwent Pavlovian fear conditioning as described above.

A short description of data set [7]: Baseline blood pressure measured by radiotelemetry. As for the experimental part:
Distance traveled during open-field testing (B) and percent time in open arms of elevated plus maze test of vehicle (C) (n=6-8/group).
In order to determine whether inhibition of the renin-angiotensin system is involved in modulating fear directly or indirectly, both acute and chronic inhibition of the angiotensin type 1 receptor (AT1R) were examined using the AT1R antagonist losartan (1 mg/kg and 10 mg/kg). […] A dose of 10 mg/kg is commonly used in rodents, however the effects on baseline blood pressure are mixed. When given acutely or chronically, some studies show reductions in baseline blood pressure while others show no effect.

The test system of data set [8] is AT1R mRNA. The data set can be described thus: Amygdala AT1R mRNA expression after extinction training (RT-qPCR). The following applies: chronic losartan vs vehicle, following extinction training; t(11)=2.8, P<0.05. A general note: Real-time PCR tracks product formation cycle by cycle.
Where [9] appears, read: chronic losartan 10 mg/kg/day vs vehicle.

In the case of `CCCCc1nc(Cl)c(CO)n1Cc1ccc(-c2ccccc2-c2nn[nH]n2)cc1` [losartan], the “plasma corticosterone levels following restraint stress” value in data set [1] was “unaltered by losartan”. Further, the “total average freezing during extinction training/fear expression” value is reported as “no difference in total average freezing” in data set [2] (losartan 1 mg/kg i.p. 40 minutes prior to extinction training, vs saline) and “no differences between groups in total average freezing” in data set [2] (losartan 10 mg/kg i.p. 40 minutes prior to extinction training, vs saline). Besides, in data set [2] (losartan 1 mg/kg i.p., tested 24 hours after extinction training in the absence of drug, vs saline), the “freezing during extinction retention testing” value is “no freezing differences between groups”. The “total overall freezing during extinction retention” value in data set [2] (losartan 10 mg/kg i.p., 24 hours later in the absence of drug, t(48)=2.9, P<0.01) was “total overall freezing was significantly reduced”. In addition, the “freezing to CS presentation during extinction retention testing (repeated-measures 2 way ANOVA, main effect of treatment)” value in data set [2] (losartan 10 mg/kg i.p., F1,144=14.6, P<0.001) is on record as “significantly less freezing to CS presentation”. Also, the “freezing in blocks of five CS tone presentations during extinction retention (Bonferroni post hoc)” value in data set [2] (losartan 10 mg/kg i.p., P<0.05) was “significant reductions in freezing during the first and third blocks”; in data set [6] (losartan 10 mg/kg/day, P<0.05), “significant reductions in freezing during the second block”. In addition, the “c-Fos activation in the paraventricular nucleus (PVN)” value in data set [3] is “reduced c-Fos activation in the PVN; also recorded: less c-Fos activation in the paraventricular nucleus”. Besides, in data set [4], the “plasma renin activity following restraint stress” value is “unchanged by losartan”. In addition, the “anxiety-like behavior (distance traveled, time spent in open arms)” value in data set [5] (acute losartan 10 mg/kg i.p. 40 minutes prior to test, vs saline) is listed as “No differences in anxiety-like behavior”. Also, the “generalized anxiety (percent time in center and distance traveled, open field test)” value in data set [5] (setting [9]) is on record as “no differences between groups”. The “acquisition of fear (percent freezing)” value in data set [6] (losartan 10 mg/kg/day subcutaneous infusion, conditioning on day 10, vs vehicle) is “no difference in the acquisition of fear; also recorded: acquired fear similarly to control groups”. Moreover, the “fear expression: total average freezing or blocks of 5 CS trials” value in data set [6] (losartan 10 mg/kg/day subcutaneous infusion, 24 hrs after fear acquisition) is listed as “no significant difference in total average freezing”. The “extinction retention of fear memory over the total average freezing period” value in data set [6] (losartan 10 mg/kg/day subcutaneous infusion, t(35)=2.4, P<0.05) is given as “enhanced extinction retention of fear memory”. Also, in data set [6] (losartan 10 mg/kg/day, F1,108=8.8, P<0.005), the “freezing to CS presentation during extinction retention testing (repeated-measures ANOVA, main effect of treatment)” value is recorded as “significantly less freezing to CS presentation”. Moreover, the baseline blood pressure entry in data set [7] (acute losartan 10 mg/kg i.p. vs saline) is “no effect on baseline blood pressure”; in data set [7] (setting [9]) it was “no differences between groups”. In addition, in data set [8], the “amygdala AT1R mRNA expression” value is “significantly reduced amygdala AT1R mRNA expression; also recorded: decreased amygdala AT1 receptor mRNA expression”.
